Consider three compounds from publication PMC10774164, “Hydrolysis of ionic liquid–treated substrate with an Iocasia fonsfrigidae strain SP3-1 endoglucanase” (Applied Microbiology and Biotechnology, 2024).

The subject of this experiment is T1, IfCelS12A.
T1 construct: tag removal not described
Briefly: hydrolysis kinetics, Lineweaver-Burk plot. Format: biochemical, Iocasia fonsfrigidae. Conditions: 50 mM Tris-HCl pH 7.0, 50 °C, 10 min, 0.5 μM enzyme. An excerpt:
hydrolysis kinetics, Lineweaver-Burk plot on IfCelS12A
Take `OC[C@H]1O[C@@H](O[C@H]2[C@H](O)[C@@H](O)[C@H](O[C@H]3[C@H](O)[C@@H](O)[C@H](O[C@H]4[C@H](O)[C@@H](O)[C@H](O[C@H]5[C@H](O)[C@@H](O)[C@H](O[C@H]6[C@H](O)[C@@H](O)C(O)O[C@@H]6CO)O[C@@H]5CO)O[C@@H]4CO)O[C@@H]3CO)O[C@@H]2CO)[C@H](O)[C@@H](O)[C@@H]1O` (stereo partly drawn) [G6, Cellohexaose]: the Km was 390 µM.

Take `OC[C@H]1O[C@@H](O[C@H]2[C@H](O)[C@@H](O)[C@H](O[C@H]3[C@H](O)[C@@H](O)[C@H](O[C@H]4[C@H](O)[C@@H](O)[C@H](O[C@H]5[C@H](O)[C@@H](O)C(O)O[C@@H]5CO)O[C@@H]4CO)O[C@@H]3CO)O[C@@H]2CO)[C@H](O)[C@@H](O)[C@@H]1O` (stereo partly drawn) [G5, Cellopentaose]: the Km was 270 µM.

`OC[C@H]1O[C@@H](O[C@H]2[C@H](O)[C@@H](O)[C@H](O[C@H]3[C@H](O)[C@@H](O)[C@H](O[C@H]4[C@H](O)[C@@H](O)C(O)O[C@@H]4CO)O[C@@H]3CO)O[C@@H]2CO)[C@H](O)[C@@H](O)[C@@H]1O` (stereo partly drawn) [G4, Cellotetraose]: the Michaelis-Menten constant (Km) amounted to 250 µM.

By Km is commonly meant the substrate concentration at which the rate is half of its maximum.
